Laboratory results published in patent US20150110847A1, “Substrate Mediated Enzymes Prodrug Therapy” (Aarhus Universitet, priority 2012, published 2015).
Read-outs that look alike come from different tables or passages of the source.

Tests used:
cells cultured on μS PVA = experiment: Viability of cells on μS PVA hydrogels with enzyme and/or prodrug (FIG. 17); type: cell-based; conditions: full SMEPT conditions: μS PVA with immobilized enzyme and 1 μM SN-38 glucuronide
Excerpt: FIG. 17: Viability of cells on μS hydrogels with enzyme and/or prodrug.

HepG2 [1] = experiment: SMEPT using static cell culture on LbL films, PrestoBlue cell viability (FIG. 21)
Description: Glass cover-slips. LbL assembly of PMA and PLL with incorporated enzyme was performed on glass cover-slips to evaluate the therapeutic effect of SN-38 under static conditions. Glass cover slips of 9 mm were sonicated in ethanol for 10 minutes, rinsed with ultrapure water, and dried with argon prior to UV sterilization for 20 minutes in a 48 well plate. Solutions of PLL and PMA, were incubated at 37° C. for 10 min prior to film assembly. Alternating layers were composed as (PLL/PMA)2.5-b-glucuronidase-(PMA/PLL)2 or […] for films without enzyme. Each layer was allowed to adsorb for 10 min at 37° C. followed by a washing step in HEPES buffer. The enzyme b-glucuronidase was added at a concentration of 20 μg/mL in HEPES buffer solution.
(§1) Cell Culture. The hepatocellular carcinoma cell line (HepG2) was used for all cell experiments. HEPG2 were cultured in a 75 cm^2 culture flask (3E6 cells/flask) in 10 mL medium (Minimum Essential Medium Eagle (MEME) supplemented with 10% fetal bovine serum (FCB), 1% penicillin and streptomycin, 1% non-essential amino acids, and 2 mM L-glutamine) and incubated at 37° C. and 5% CO2.
Static cell culture. The LbL coated glass slides were UV sterilized for 10 minutes prior to cell seeding. HepG2 cells with a starting density of 75.000 cells in 300 μL were seeded per well. The cells were allowed to adhere overnight before adding the (pro)drug SN-38 of 1 μM and incubate for 48 h. 200 μL of fresh media was added together with 20 μL of PrestoBlue cell viability reagent and evaluated on an EnspireMultilabel Plate Reader after 30 minutes of incubation.
A glucuronide prodrug of a commercial anticancer drug, SN-38, was used. […] Further, hepatocellular carcinoma (HCC) is a condition successfully addressed using tools for localized drug delivery, but solitary drugs are currently accommodated for this mode of delivery.
Hepatocytes were seeded on the biocatalytic film (PLL/PMA)2.5/β-Glu/(PGA/PMA)2 and allowed to adhere overnight before refreshing the media and adding the (pro)drug at 1 μM.

HepG2 [2] = test system: HepG2
Description: as §1

HepG2 [3] = experiment: Cell viability in three sequentially connected perfusion chambers, site-specific delivery (FIG. 25); type: cell-based; conditions: for viability of cells reduced to: 1 μM, 4 h flow, further 48 h culture
Excerpt: For the evaluation of drug delivery to subsequent chambers tubings were connected so that the flow of solution would enter the first chamber containing PEMs with enzyme and subsequent flow to chamber 2 and chamber 3 with cell culture on TCPS.
It is assumed that when the drug is synthesized within the coating immediately underneath the cultured cells, through increased local concentration of the drug, the synthesized therapeutic would exert a higher local effect in adhering cells as compared to the cells growing “downstream”. […] Outlet from chamber 1 was connected to the inlet for chamber 2, and in turn, outlet of chamber 2 was connected to the inlet of chamber 3. Hepatocytes were seeded in all three chambers, but only the cells in chamber 1 were cultured on biocatalytic coatings. Solution of SN-38 glucuronide (1 μM in cell culture media) was administered to the interconnected perfusion chambers at constant shear stress for 4 h. Subsequently, the perfusion chambers were flushed with (pro)drug-free media and the cells were cultured for a further 48 h, prior to the assessment of the cell viability.
The viability of cells cultured on biocatalytic coatings was reduced to ˜30% verifying a pronounced therapeutic response achieved via SMEPT under flow conditions. Viability of cells in chamber two was reduced to ˜60% thus being much higher than that for cells cultured on biocatalytic coatings. Taking into account dose response of HepG2 cells to SN-38, viability difference between 30% and 60% corresponds to ˜10-fold difference in the concentration of the drug used for the treatment. […] It is therefore highly likely that local therapeutic effect would exceed that at “downstream” location to a greater extent than illustrated in FIG. 25. Our data provide experimental proof of the site-specific drug delivery achieved via SMEPT and thus, illustrate therapeutic advantage associated with this technique.

HepG2 [4] = conditions: previously shown by the applicants; cited from earlier work
b-Galactosidase = test system: b-Galactosidase
Description: Microstructured PVA hydrogels were assembled using polymer solutions containing b-Galactosidase (1 g/L), stabilized using 0.5 M sodium sulfate and incubated in PBS for 1 h prior analysis. We used a substrate for b-Gal conversion of which affords nitric oxide (NO), a potent and multi-functional signaling and therapeutic molecule. This radical—molecule has a very short half-life and is rapidly converted into nitrite/nitrate, and the latter are conventionally used to quantify the levels of generated nitric oxide. Analysis of nitrite is conducted via a Griess assay, i.e. a colorimetric test establishing a linear correlation between the concentration of nitrite and absorbance at 530 nm; cf. FIG. 31.
b-Gal-NONOate was administered onto the enzyme-functionalized hydrogels at varied concentrations and incubated for 30 min, upon which the levels of […] were quantified via the Griess assay.

HepG2 [5] = experiment: Cellular internalization of in situ generated fluorescent product, flow cytometry (FIG. 4); type: cell-based; conditions: for levels of cellular fluorescence (cargo internalization): enzyme in μS PVA hydrogel, versus solution based conversion; for levels of cellular fluorescence (cargo internalization) / fluorescence of cultured cells: 2.5 μg/mL, 24 h; for fluorescence of cultured cells: prodrug in absence of the enzyme
Description: FIG. 4. Utility of SMEPT in generation and cellular internalization of in situ produced product is verified through quantification of fluorescence of hepatic cells cultured on the μS PVA hydrogels. […] Experimental conditions: (A) 1 g/L enzyme in the polymer solution; initial concentration of fluorescein diglucuronide, 2.5 μg/mL; incubation time 24 h; (B) 1 g/L enzyme in the polymer solution; initial concentration of fluorescein diglucuronide 0.25 (top) and 0.025 (bottom) […].
Towards this goal, hydrogels were prepared using solutions of PVA supplemented with a synthetic polypeptide, poly-L-lysine (PLL). […] Enzyme- and PLL-containing PVA hydrogels were assembled as described above, after which time μS thin films were used as substrates for adhesion and proliferation of a model cell line, HepG2. […] Furthermore, advanced efforts in engineering of liver tissue require co-culturing of mammalian cells (e.g. hepatocytes and Kupffer cells), a challenge which is successfully addressed using μS and micro-patterned substrates. These notions together justify the use of a hepatic cell line and μS PVA hydrogels for the development of SMEPT.
Initial, internalization of a fluorescent reporter molecule produced via SMEPT and via a solution-based conversion was compared. To achieve this, the cells were seeded on μS PVA hydrogels and were allowed 24 h for attachment, after which time the media was changed to fresh media and, for solution based prodrug conversion, equivalent amount of the enzyme as that contained within μS PVA hydrogels was administered to the cultured cells. At this point, the samples were charged with fluorescein di-glucuronide to a 2.5 μg/mL concentration (3.65 μM). Upon 24 h incubation, fluorescence of the harvested cells was quantified using flow cytometry. […] We note that solution based prodrug conversion is used herein only as a measure to verify protein activity and utility of SMEPT. In the human body, β-glucuronidase has a limited spread and an activity markedly lower as compared to bacterial copy used in this study. The latter notion provides for a low level of “background” prodrug conversion and contributes to specificity of drug delivery achieved with the use of β-glucuronidase and glucuronide prodrugs, as documented for ADEPT and inherited by SMEPT.
For further characterization of SMEPT, the time course of cellular internalization of the in situ generated fluorescent reporter product was followed at two concentrations of the fluorogenic pro-drug, 0.025 and 0.25 μg/mL (36.5 and 365 nM, respectively). At specified time points, fluorescence of the detached cells was quantified using flow cytometry, FIG. 19B. […] Further to this, at each time point, higher pro-drug concentration affords a higher level of fluorescence registered in the cultured cells, i.e. a greater amount of internalized cargo. Together, these two graphs present time- and dose-dependent internalization of reporter cargo and illustrate the tools of control offered by SMEPT for substrate mediated drug delivery.

b-glucuronidase = target: T1, b-glucuronidase (Escherichia coli, UniProt P05804); experiment: Prodrug conversion in flow by biocatalytic LbL films in perfusion chambers (FIG. 23); type: biochemical; conditions: constant flow
T1 construct: purchased
T1 sequence (P05804 whole entry, the tested form may be a part): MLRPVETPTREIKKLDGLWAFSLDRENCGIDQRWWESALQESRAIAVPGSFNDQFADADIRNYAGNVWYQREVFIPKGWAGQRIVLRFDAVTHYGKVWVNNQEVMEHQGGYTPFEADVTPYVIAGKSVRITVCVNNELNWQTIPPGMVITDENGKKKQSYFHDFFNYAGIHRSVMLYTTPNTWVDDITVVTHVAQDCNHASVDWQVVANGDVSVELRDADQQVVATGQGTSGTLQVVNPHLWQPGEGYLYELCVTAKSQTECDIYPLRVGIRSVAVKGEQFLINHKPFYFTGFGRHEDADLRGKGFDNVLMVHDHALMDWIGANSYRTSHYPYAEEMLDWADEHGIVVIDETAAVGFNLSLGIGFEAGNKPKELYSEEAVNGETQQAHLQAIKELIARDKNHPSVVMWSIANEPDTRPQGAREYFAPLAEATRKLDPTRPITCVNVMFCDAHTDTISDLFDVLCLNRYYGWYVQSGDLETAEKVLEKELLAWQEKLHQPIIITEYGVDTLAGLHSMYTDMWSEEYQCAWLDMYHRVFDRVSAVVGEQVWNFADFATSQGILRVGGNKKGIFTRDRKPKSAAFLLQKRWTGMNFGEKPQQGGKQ
Description: For evaluation of the enzymatic activity the prodrug fluorescein di-glucuronide, FdG, of 5 μg/mL was added to syringes and connected to the coated perfusion chambers. A syringe pump was used to control the shear stress using 0.15, 0.074, 0.03 dyn/cm^2. An “on demand” conversion of prodrug under flow conditions a syringe with buffer was used as a control. The “on” and “off” was then controlled by the switch of syringes to the given μ-slide chamber.
For multiple layers of enzyme the PEMs were constructed as (PMA/PLL)4 keeping the total amount of layers constant and adding the enzyme in between each layer of PLL.
All evaluations were measured out on the PlateReader by collecting aliquots from the outlet tubing during the experiment and transferred to a 96-well pate.
A unique opportunity associated with multilayered surface coatings relates to the possibility to build films with a desired thickness for which polymer adsorption can be performed to a desired number of layers. Similarly, LbL deposition would allow controlling the amount of enzyme within the thin film through a facile change in the number of protein deposition steps. To show this, polymer coatings were assembled using one or three layers of adsorbed β-Glu keeping the total number of polymer layers constant. […] While a single layer of the enzyme achieved a <[…] concentration of the product, three protein layers suffice for a build-up of product concentration to over 30 nM, all achieved under dynamic, constant flow conditions.

Structure (SMILES): CCc1c2c(nc3ccc(O[C@@H]4O[C@H](C(=O)O)[C@@H](O)[C@H](O)[C@H]4O)cc13)-c1cc3c(c(=O)n1C2)COC(=O)[C@]3(O)CC [SN-38 glucuronide]
- cytotoxic effect (viability of cells) (cells cultured on μS PVA): cytotoxic effect which is comparable to the active drug SN-38
- cell viability reduced by (HepG2 [1]; SMEPT: hepatocytes on β-Glu-containing LbL film, 1 μM, 48 h incubation, compared to control): ~80%
- change in cell viability (HepG2 [1]; prodrug on (PLL/PMA)4.5 coatings, no enzyme incorporated, 1 μM, 48 h): minor albeit statistically significant decrease in the cell viability
- reduction in viability of the hepatocytes compared with SMEPT (HepG2 [1]; solution based EPT: prodrug and enzyme both in solution, enzyme-free LbL films, 1 μM, 48 h): similar
- decrease in cell viability by (HepG2 [2]; 1 μM, 4 h flow on biocatalytic film, then static drug-free culture, total 48 h, normalized to cells without (pro)drug): ~70%
- viability of cells reduced to (HepG2 [3]; chamber 1, cells on biocatalytic coatings): ~30%
- viability of cells reduced to (HepG2 [3]; chamber two, downstream, no biocatalytic coating): ~60%
- inherent cytotoxic effects on hepatocytes (HepG2 [4]): did not have an inherent cytotoxic effects on hepatocytes

Structure (SMILES): [O-]/[N+](=N\O[C@@H]1O[C@H](CO)[C@H](O)[C@H](O)[C@H]1O)N1CCCC1 [b-Gal-NONOate]
- prodrug conversion/drug production of NO (b-Galactosidase; absence of enzyme): no prodrug conversion/drug production of NO is observed
- administered dose converted (b-Galactosidase; within 30 min of incubation, b-Galactosidase PVA hydrogels): approximately 50%

Structure (SMILES): O=C1OC2(c3ccc(O[C@@H]4O[C@H](C(=O)O)[C@@H](O)[C@H](O)[C@H]4O)cc3Oc3cc(O[C@@H]4O[C@H](C(=O)O)[C@@H](O)[C@H](O)[C@H]4O)ccc32)c2ccccc21 [fluorescein di-glucuronide]
- fluorescence of cells over time (HepG2 [5]; SMEPT, 0.025 and 0.25 μg/mL, earliest time-point 1 h): pronounced increase in the fluorescence of cells
- levels of cellular fluorescence (cargo internalization) (HepG2 [5]; SMEPT): comparable to that produced by a solution based administration
- levels of cellular fluorescence (cargo internalization) (HepG2 [5]; SMEPT, listed as fluorescein diglucuronide): comparable levels of fluorescence of cultured cells
- fluorescence of cultured cells (HepG2 [5]): fluorescence identical to pristine, non-treated cells
- fluorescence of cultured cells (HepG2 [5]; listed as fluorescein diglucuronide): negligible change in the fluorescence of cultured cells
- amount of product synthesized in unit time, 3 versus 1 layers of adsorbed protein (b-glucuronidase; identical prodrug concentration): approximately 3 ×
- concentration of the product (b-glucuronidase; single layer of the enzyme): < 10 nm
- concentration of the product (b-glucuronidase; three protein layers): over 30 nM

Structure (SMILES): CCc1c2c(nc3ccc(O)cc13)-c1cc3c(c(=O)n1C2)COC(=O)[C@]3(O)CC [SN-38]
- reduction in viability of the hepatocytes compared with SMEPT (HepG2 [1]): similar
- cell culture time required for a well-pronounced therapeutic effect (HepG2 [2]): at least 48 h
- time the presence of the drug was required for a pronounced therapeutic effect (HepG2 [2]): ≥ 4 h
- difference in the concentration of the drug corresponding to viability difference between 30% and 60% (HepG2 [3]; from dose response of HepG2 cells to SN-38): ~10 fold
